Data published in patent publication US8735601B2, “Pentamethine cyanine fluorescent dye with N-substituting at β-position of conjugated chain” (Dalian University of Technology, priority 2010, dated 2014).

Tests used:
[1] = Measurement of fluorescence quantum yield (Rhodamine B in ethanol as reference); format: physicochemical
[2] = Absorption and emission spectra of dyes in different solvents; format: physicochemical; design: key to Δλ1 / Δλ2: Stokes shift in nm; ε1 (molar extinction coefficient) / ε2 (molar extinction coefficient): scale not given here; conditions: for Δλ1: Stokes shift to absorption peak 1; for Δλ2: Stokes shift to absorption peak 2
Source text: In the present invention, compounds IIa to IIg were synthesized based on compound II, and their spectral properties were investigated. Compared with the traditional pentamethine cyanine dye, for the novel pentamethine cyanine dye with N-substituting at β-position (deviated position), it was observed that, evident blue shift of absorption and emission wavelengths occurred, absorption wavelength blue shifted even largely than that of emission wavelength, absorption spectrum and fluorescence spectrum were no longer mirror-symmetric and had two absorption peaks and a single emission peak, and larger Stokes shift (minimum 60 and 150 nm, and maximum 90 and 230 nm) appeared.

## CCN1/C(=C/C=C/C(=C/C2=[N+](CC)c3ccccc3C2(C)C)NCc2ccccc2)C(C)(C)c2ccccc21 [Dye IIe]
[1]; solvent DCM
  Φ1 (fluorescence quantum yield): 0.106
  Φ2 (fluorescence quantum yield): 0.075
[1]; solvent DMSO
  Φ1 (fluorescence quantum yield): 0.009
  Φ2 (fluorescence quantum yield): 0.008
[1]; solvent Ethanol
  Φ1 (fluorescence quantum yield): 0.019
  Φ2 (fluorescence quantum yield): 0.017
[1]; solvent Methanol
  Φ1 (fluorescence quantum yield): 0.008
  Φ2 (fluorescence quantum yield): 0.007
[1]; solvent THF
  Φ1 (fluorescence quantum yield): 0.085
  Φ2 (fluorescence quantum yield): 0.075
[1]; solvent Water
  Φ1 (fluorescence quantum yield): 0.003
  Φ2 (fluorescence quantum yield): 0.001
[2]; solvent DCM
  Δλ1: 81
  Δλ2: 185
  ε1 (molar extinction coefficient): 2.8 cm^−1M
  ε2 (molar extinction coefficient): 2.1 cm^−1M
  λabs1: 522 nm
  λbs2: 418 nm
  λem: 603 nm
[2]; solvent DMSO
  Δλ1: 92
  Δλ2: 174
  ε1 (molar extinction coefficient): 2.6 cm^−1M
  ε2 (molar extinction coefficient): 2.3 cm^−1M
  λabs1: 515 nm
  λbs2: 433 nm
  λem: 607 nm
[2]; solvent Ethanol
  Δλ1: 89
  Δλ2: 179
  ε1 (molar extinction coefficient): 2.8 cm^−1M
  ε2 (molar extinction coefficient): 2.3 cm^−1M
  λabs1: 519 nm
  λbs2: 429 nm
  λem: 608 nm
[2]; solvent Methanol
  Δλ1: 88
  Δλ2: 174
  ε1 (molar extinction coefficient): 2.7 cm^−1M
  ε2 (molar extinction coefficient): 2.2 cm^−1M
  λabs1: 517 nm
  λbs2: 431 nm
  λem: 605 nm
[2]; solvent THF
  Δλ1: 86
  Δλ2: 170
  ε1 (molar extinction coefficient): 2.9 cm^−1M
  ε2 (molar extinction coefficient): 2.2 cm^−1M
  λabs1: 510 nm
  λbs2: 426 nm
  λem: 596 nm
[2]; solvent Water
  Δλ1: 101
  Δλ2: 188
  ε1 (molar extinction coefficient): 2.3 cm^−1M
  ε2 (molar extinction coefficient): 1.9 cm^−1M
  λabs1: 516 nm
  λbs2: 429 nm
  λem: 617 nm

## CCN1/C(=C/C=C/C(=C/C2=[N+](CC)c3ccccc3C2(C)C)Nc2ccccc2)C(C)(C)c2ccccc21 [Dye IIg]
[1]; solvent DCM
  Φ1 (fluorescence quantum yield): 0.064
  Φ2 (fluorescence quantum yield): 0.055
[1]; solvent DMSO
  Φ1 (fluorescence quantum yield): 0.014
  Φ2 (fluorescence quantum yield): 0.002
[1]; solvent Ethanol
  Φ1 (fluorescence quantum yield): 0.019
  Φ2 (fluorescence quantum yield): 0.006
[1]; solvent Methanol
  Φ1 (fluorescence quantum yield): 0.011
  Φ2 (fluorescence quantum yield): 0.004
[1]; solvent THF
  Φ1 (fluorescence quantum yield): 0.037
  Φ2 (fluorescence quantum yield): 0.0002
[1]; solvent Water
  Φ1 (fluorescence quantum yield): 0.003
  Φ2 (fluorescence quantum yield): 0.001
[2]; solvent DCM
  Δλ1: 75
  Δλ2: 180
  ε1 (molar extinction coefficient): 3.6 cm^−1M
  ε2 (molar extinction coefficient): 2.1 cm^−1M
  λabs1: 570 nm
  λbs2: 465 nm
  λem: 645 nm
[2]; solvent DMSO
  Δλ1: 80
  Δλ2: 230
  ε1 (molar extinction coefficient): 1.9 cm^−1M
  ε2 (molar extinction coefficient): 2.1 cm^−1M
  λabs1: 566 nm
  λbs2: 416 nm
  λem: 646 nm
[2]; solvent Ethanol
  Δλ1: 77
  Δλ2: 206
  ε1 (molar extinction coefficient): 2.5 cm^−1M
  ε2 (molar extinction coefficient): 2.0 cm^−1M
  λabs1: 563 nm
  λbs2: 434 nm
  λem: 640 nm
[2]; solvent Methanol
  Δλ1: 77
  Δλ2: 208
  ε1 (molar extinction coefficient): 2.3 cm^−1M
  ε2 (molar extinction coefficient): 2.2 cm^−1M
  λabs1: 561 nm
  λbs2: 430 nm
  λem: 638 nm
[2]; solvent THF
  Δλ1: 83
  Δλ2: 236
  ε1 (molar extinction coefficient): 0.9 cm^−1M
  ε2 (molar extinction coefficient): 2.8 cm^−1M
  λabs1: 556 nm
  λbs2: 403 nm
  λem: 639 nm
[2]; solvent Water
  Δλ1: 81
  Δλ2: 200
  ε1 (molar extinction coefficient): 1.7 cm^−1M
  ε2 (molar extinction coefficient): 2.2 cm^−1M
  λabs1: 559 nm
  λbs2: 440 nm
  λem: 640 nm
